In ChEMBL document CHEMBL1122179, “1-(alkylamino)isochromans: hypotensives with peripheral and central activities” (J Med Chem, 1982):

Target: T1, Adrenergic receptor alpha-2 (Rattus norvegicus, UniProt P22086+P19328+P22909)
T1 sequence (P22086 whole entry): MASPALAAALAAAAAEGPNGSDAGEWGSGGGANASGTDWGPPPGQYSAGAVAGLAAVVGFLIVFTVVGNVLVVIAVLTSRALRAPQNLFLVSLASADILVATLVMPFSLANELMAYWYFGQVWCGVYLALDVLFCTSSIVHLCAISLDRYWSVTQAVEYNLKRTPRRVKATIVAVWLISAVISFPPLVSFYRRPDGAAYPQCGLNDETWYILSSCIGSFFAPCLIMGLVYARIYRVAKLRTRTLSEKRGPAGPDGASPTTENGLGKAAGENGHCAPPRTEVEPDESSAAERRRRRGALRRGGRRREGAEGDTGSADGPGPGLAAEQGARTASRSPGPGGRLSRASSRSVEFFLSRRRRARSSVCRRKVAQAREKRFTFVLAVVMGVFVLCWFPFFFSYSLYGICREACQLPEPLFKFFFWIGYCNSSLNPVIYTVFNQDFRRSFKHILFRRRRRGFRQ
T1 sequence (P19328 whole entry): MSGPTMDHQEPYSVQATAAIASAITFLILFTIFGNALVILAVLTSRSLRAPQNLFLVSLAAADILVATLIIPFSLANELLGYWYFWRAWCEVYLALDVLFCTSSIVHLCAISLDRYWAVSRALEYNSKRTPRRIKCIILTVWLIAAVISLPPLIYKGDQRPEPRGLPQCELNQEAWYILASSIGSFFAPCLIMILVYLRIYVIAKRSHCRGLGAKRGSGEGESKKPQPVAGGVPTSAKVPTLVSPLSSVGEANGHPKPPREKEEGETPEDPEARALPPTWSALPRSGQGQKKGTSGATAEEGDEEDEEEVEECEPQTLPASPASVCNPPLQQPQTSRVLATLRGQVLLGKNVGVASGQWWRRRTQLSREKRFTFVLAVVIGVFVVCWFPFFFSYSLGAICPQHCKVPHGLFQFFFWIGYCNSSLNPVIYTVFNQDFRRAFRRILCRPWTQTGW
T1 sequence (P22909 whole entry): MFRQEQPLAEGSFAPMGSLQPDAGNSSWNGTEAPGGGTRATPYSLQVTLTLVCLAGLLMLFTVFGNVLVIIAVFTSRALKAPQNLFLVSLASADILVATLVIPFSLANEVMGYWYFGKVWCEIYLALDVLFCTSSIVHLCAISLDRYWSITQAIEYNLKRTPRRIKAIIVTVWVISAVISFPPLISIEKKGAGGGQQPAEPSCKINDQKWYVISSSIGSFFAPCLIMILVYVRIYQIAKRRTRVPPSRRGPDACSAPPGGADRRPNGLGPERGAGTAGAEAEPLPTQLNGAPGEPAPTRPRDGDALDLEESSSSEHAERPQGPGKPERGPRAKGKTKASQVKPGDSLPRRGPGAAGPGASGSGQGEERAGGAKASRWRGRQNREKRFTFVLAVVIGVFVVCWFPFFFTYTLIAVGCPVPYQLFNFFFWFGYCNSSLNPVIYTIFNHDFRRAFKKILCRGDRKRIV
Assay: Compound was tested for the inhibition of [3H]clonidine binding Alpha-2 adrenergic receptor of crude rat brain membrane

- Ki: 62 nM
SMILES: COc1cc2c(cc1OC)C(CCN1CCN(c3ccc(F)cc3)CC1)OCC2 (stereo unspecified)
